Assay results: patent US12606543B2, “Indole derivatives as serotonergic agents useful for the treatment of disorders related thereto” (priority 2023, dated 2026)
Read-outs that look alike come from different tables or passages of the source.

Experiments:
Assay type in all cases: in vitro ADME
[1] = Liver microsomes stability, human; conditions: for CLint scaled at 2 μM: read-out: Scaled-up CLint
Method: (§1) The objective of this study was to estimate in vitro metabolic stability of exemplary compounds of Formula (I) or a pharmaceutically acceptable salt, solvate, and/or prodrug thereof in pooled human, male rat, and male mouse liver microsomes. The concentrations of compounds in reaction systems were evaluated by LC-MS/MS for estimating the stability in pooled human, male rat, and male mouse liver microsomes. The in vitro intrinsic clearances of test compounds were determined as well.
A master solution in the “Incubation Plate” containing phosphate buffer, ultra-pure H2O, MgCl2 solution and liver microsomes was made according to Table 33. The mixture was pre-warmed at 37° C. water bath for 5 minutes.
40 μL of 10 mM nicotinamide adenine dinucleotide phosphate (NADPH) solution was added to each well. The final concentration of NADPH was 1 mM. The negative control samples were prepared by replacing NADPH with 40 μL of ultra-pure H2O. Samples were prepared in duplicate. Negative controls were prepared in singlet.
The reaction was started with the addition of 4 μL of 200 μM exemplary test compounds of the disclosure or control compounds to each master solution to get the final concentration of 2 μM. This study was performed in duplicate.
Aliquots of 50 μL were taken from the reaction solution at 0, 15, 30, 45, and 60 minutes. The reaction solutions were stopped by the addition of 4 volumes of cold methanol with IS (100 nM alprazolam, 200 nM imipramine, 200 nM labetalol, and 2 μM ketoprofen). Samples were centrifuged at 3,220 g for 40 minutes. Aliquot of 90 μL of the supernatant was mixed with 90 μL of ultra-pure H2O and then was used for LC-MS/MS analysis.
LC/MS analysis was performed for all samples from this study using a Shimadzu liquid chromatograph separation system equipped with degasser DGU-20A5R; solvent delivery unit LC-30AD; system controller SIL-30AC; column oven CTO-30A; CTC Analytics HTC PAL System. Mass spectrometric analysis was performed using a Triple Quad™ 5500 instrument.
All calculations were carried out using Microsoft Excel. Peak area ratios of test compound to internal standard (listed in the below table) were determined from extracted ion chromatograms.
All calculations were carried out using Microsoft Excel. Peak areas were determined from extracted ion chromatograms. The slope value, k, was determined by linear regression of the natural logarithm of the remaining percentage of the parent drug vs. incubation time curve.
The in vitro half-life (in vitro t1/2) was determined from the slope value:
Conversion of the in vitro t1/2 (min) into the in vitro intrinsic clearance (in vitro CLint, in μL/min/mg proteins) was done using the following equation (mean of duplicate determinations): […]
as §1, with “solvate” for “solvate,”, “rat” for “rat,”
A master solution in the “Incubation Plate” containing phosphate buffer, ultra-pure H2O, MgCl2 solution and liver microsomes was made according to Table 67. The mixture was pre-warmed at 37° C. water bath for 5 minutes.
40 μL of 10 mM NADPH solution was added to each well. The final concentration of NADPH was 1 mM. The negative control samples were prepared by replacing NADPH with 40 μL of ultra-pure H2O. Samples were prepared in duplicate. Negative controls were prepared in singlet
Aliquots of 50 μL were taken from the reaction solution at 0, 15, 30, 45 and 60 minutes. The reaction solutions were stopped by the addition of 4 volumes of cold methanol with IS (100 nM alprazolam, 200 nM imipramine, 200 nM labetalol and 2 μM ketoprofen).

[2] = Plasma protein binding by equilibrium dialysis, human; conditions: for fraction unbound at 6 h, 1 μM: read-out: % Bound (converted); for recovery at 6 h, 1 µM: human, plasma
Method: (§2) The final concentration of compound was 1 μM. The final concentration of DMSO was 0.5%. Ketoconazole was used as positive control in the assay.
(§3) The assay was performed in duplicate.
(§4) All calculations were carried out using Microsoft Excel. […] The percentages of bound compound were calculated as follows: […]
(§5) Ketoconazole was used as positive control in the assay.

[3] = Plasma protein binding by equilibrium dialysis, dog; conditions: for recovery at 6 h, 1 µM / fraction unbound at 6 h, 1 μM: Beagle; for recovery at 6 h, 1 µM: dog; for fraction unbound at 6 h, 1 μM: read-out: % Bound (converted)
Method: as §2, §3, §4, §5

[4] = human liver microsomes, 2 μM compound, 0.5 mg/mL microsomes
[5] = human liver microsomes, With Cofactors, 0 min
[6] = human liver microsomes, With Cofactors, 30 min
[7] = human liver microsomes, With Cofactors, 60 min
[8] = human liver microsomes, Without Cofactors, 0 min
[9] = human liver microsomes, Without Cofactors, 30 min
[10] = human liver microsomes, Without Cofactors, 60 min
[11] = Human liver microsomes, 2 μM, 0.5 mg/mL, NADPH
[12] = human plasma, equilibrium dialysis, 37° C., 6 hours
[13] = dog plasma, equilibrium dialysis, 37° C., 6 hours

| Structure (SMILES) | Predicted hepatic CL ([1]; human liver microsomes) [mL/min/kg] | half-life at 2 μM [1, 4] [min] | microsomal CLint at 2 μM [1, 4] [µL/min/mg] | Remaining Percentage [1, 5] [%] | Remaining Percentage [1, 6] [%] | Remaining Percentage [1, 7] [%] | Remaining Percentage [1, 8] [%] | Remaining Percentage [1, 9] [%] | Remaining Percentage [1, 10] [%] | CLint scaled at 2 μM ([1]; human liver microsomes) [mL/min/kg] | % Remaining @ 6 hours ([2]; human plasma, 6 hours) [%] | fraction unbound at 6 h, 1 μM [2, 12] | recovery at 6 h, 1 µM [2, 12] [%] | recovery at 6 h, 1 µM [3, 13] [%] | fraction unbound at 6 h, 1 μM [3, 13] | % Remaining @ 6 hours ([3]; dog plasma, 6 hours) [%] | other results |
| --- | --- | --- | --- | --- | --- | --- | --- | --- | --- | --- | --- | --- | --- | --- | --- | --- | --- |
| [2H]C([2H])(c1c[nH]c2ccc(OCCCCCN3C(=O)C4CCCCC4C3=O)cc12)[C@H]1CCCN1C([2H])([2H])[2H] (mixture of isomers) [Rac (R) I-248] | >19.64 | < 4.51 | > 307 | 100.00 | 0.04 | 0.00 | 100.00 | 100.47 | 98.60 | > 385 |  |  |  |  |  |  |  |
| CSc1ccc2[nH]cc(C[C@H]3CCCN3C)c2c1 [(R) I-1, (R)-3-((1-Methylpyrrolidin-2-yl)methyl)-5-(methylthio)-1H-indole] |  |  |  |  |  |  |  |  |  |  |  |  |  |  |  |  | Predicted hepatic CL ([1]; Human liver microsomes): 16.09 mL/min/kg; half-life at 2 μM [1, 11]: 24 min; microsomal CLint at 2 μM [1, 11]: 57.7 µL/min/mg; CLint scaled at 2 μM ([1]; Human liver microsomes): 72.3 mL/min/kg; Remaining Percentage (%) 0 min [1, 5]: 100.00%; Remaining Percentage (%) 30 min [1, 6]: 50.51%; Remaining Percentage (%) 60 min [1, 7]: 17.72%; Remaining Percentage (%) 0 min [1, 8]: 100.00%; Remaining Percentage (%) 30 min [1, 9]: 101.47%; Remaining Percentage (%) 60 min [1, 10]: 97.56%; % Remaining @ 6 hours ([2]; Human plasma, 1 μM, 6 hours, 37° C.): 103.38%; fraction unbound at 6 h, 1 μM ([2]; Human plasma, 1 μM, equilibrium dialysis 6 hours, 37° C.): 0.16; recovery at 6 h, 1 µM ([2]; Human plasma, 1 μM, equilibrium dialysis 6 hours): 102%; recovery at 6 h, 1 µM ([3]; Dog plasma, 1 μM, equilibrium dialysis 6 hours): 92.9%; fraction unbound at 6 h, 1 μM ([3]; Dog plasma, 1 μM, equilibrium dialysis 6 hours, 37° C.): 0.174; % Remaining @ 6 hours ([3]; Dog plasma, 1 μM, 6 hours, 37° C.): 95.50% |
| COCCN1CCC[C@@H]1Cc1c[nH]c2ccc(OC)cc12 [(R) I-98, (R)-5-Methoxy-3-((1-(2-methoxyethyl)pyrrolidin-2-yl)methyl)-1H-indole] | 11.72 | 64.3 | 21.6 |  | 100.00 | 67.04 |  | 100.00 | 98.21 | 27 | 104.64 | 0.168 | 101 | 104 | 0.157 | 110.92 |  |
| [2H]C([2H])(c1c[nH]c2ccc(OCCCCN3C(=O)c4ccccc4C3=O)cc12)[C@H]1CCCN1C([2H])([2H])[2H] [(R) I-244, (R)-2-(4-((3-((1-(Methyl-d3)pyrrolidin-2-yl)methyl-d2)-1H-indol-5-yl)oxy)butyl)isoindoline-1,3-dione] | 19.32 | 5.98 | 232 | 100.00 | 3.10 | 0.00 | 100.00 | 94.44 | 88.07 | 290 | 105.89 | 0.0142 | 90.1 | 94.6 | 0.0281 | 94.07 |  |
| [2H]C([2H])(c1c[nH]c2ccc(OCCCCCN3C(=O)c4ccccc4C3=O)cc12)[C@H]1CCCN1C([2H])([2H])[2H] [(R) I-245, (R)-2-(5-((3-((1-(Methyl-d3)pyrrolidin-2-yl)methyl-d2)-1H-indol-5-yl)oxy)pentyl)isoindoline-1,3-dione] | 18.11 | 12 | 115 | 100.00 | 14.62 | 3.13 | 100.00 | 101.09 | 98.91 | 145 |  |  |  |  |  |  |  |
